According to patent US20120309739A1, “AKT / PKB INHIBITORS” (ALMAC DISCOVERY LIMITED, priority 2009, published 2012):

Experiments:
[1] = biological target: T1, AKT1 (Homo sapiens, UniProt P31749); experiment: AKT Kinase Assay (IMAP fluorescent polarisation) vs AKT1; format: biochemical; settings: activated AKT1, FAM Crosstide substrate
T1 construct: purchased SignalChem
Method in brief: (§1)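 IMAP fluorescence-polarisation read-out (485/528 nm) of 5′FAM-Crosstide phosphorylation; IC50 fitted by non-linear regression from % inhibition against vehicle. Fourteen-point half-log compound dilutions sat 45 min at room temperature with activated isoform at linear-range amount. ATP and substrate followed for 1 h, then a 1 h binding-reagent stop.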

[2] = biological target: T2, AKT2 (Homo sapiens, UniProt P31751); experiment: AKT Kinase Assay (IMAP fluorescent polarisation) vs AKT2; format: biochemical; settings: activated AKT2, FAM Crosstide substrate
T2 construct: purchased SignalChem
T2 sequence (P31751 whole entry): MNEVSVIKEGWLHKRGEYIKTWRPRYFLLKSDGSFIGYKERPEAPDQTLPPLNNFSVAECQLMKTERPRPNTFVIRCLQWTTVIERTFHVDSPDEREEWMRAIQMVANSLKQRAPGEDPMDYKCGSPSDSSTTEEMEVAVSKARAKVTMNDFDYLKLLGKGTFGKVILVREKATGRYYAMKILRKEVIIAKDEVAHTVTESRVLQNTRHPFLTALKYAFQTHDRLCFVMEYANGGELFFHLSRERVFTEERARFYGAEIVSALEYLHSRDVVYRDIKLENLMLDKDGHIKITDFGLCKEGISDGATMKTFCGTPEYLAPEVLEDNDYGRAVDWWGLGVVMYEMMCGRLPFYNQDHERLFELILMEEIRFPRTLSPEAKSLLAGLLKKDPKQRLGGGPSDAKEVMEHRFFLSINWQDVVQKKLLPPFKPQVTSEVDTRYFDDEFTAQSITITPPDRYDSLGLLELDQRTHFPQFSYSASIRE
Method in brief: as §1

[3] = biological target: T3, AKT3 (Homo sapiens, UniProt Q9Y243); experiment: AKT Kinase Assay (IMAP fluorescent polarisation) vs AKT3; format: biochemical; settings: activated AKT3, FAM Crosstide substrate
T3 construct: purchased SignalChem
T3 sequence (Q9Y243 whole entry): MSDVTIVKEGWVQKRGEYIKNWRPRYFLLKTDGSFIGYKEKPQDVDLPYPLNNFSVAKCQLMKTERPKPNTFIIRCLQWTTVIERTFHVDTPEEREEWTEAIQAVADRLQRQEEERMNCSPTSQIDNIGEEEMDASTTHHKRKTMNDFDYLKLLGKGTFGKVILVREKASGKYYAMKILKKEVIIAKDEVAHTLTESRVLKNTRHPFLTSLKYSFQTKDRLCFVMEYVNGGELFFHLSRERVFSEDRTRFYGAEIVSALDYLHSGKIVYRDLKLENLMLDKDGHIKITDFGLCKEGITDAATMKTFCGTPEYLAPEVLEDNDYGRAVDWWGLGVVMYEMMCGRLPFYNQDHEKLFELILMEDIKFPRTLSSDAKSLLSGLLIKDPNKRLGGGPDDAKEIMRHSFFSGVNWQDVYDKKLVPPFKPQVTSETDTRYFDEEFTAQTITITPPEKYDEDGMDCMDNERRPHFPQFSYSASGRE
Method in brief: as §1

[4] = system: AKT phosphorylation; experiment: Phosphorylation status of AKT/PI3K pathway via western blotting; format: cell-based; settings: for 48 h at 10 μM
Source text: Analysis of Compound Effects on AKT Signalling Pathways
Phosphorylation status of various members of the AKT/PI3K pathway were investigated via western blotting.
Materials Required for this Assay
20× Running buffer (Invitrogen); Rainbow marker ladder (GE Healthcare); Reducing buffer (Invitrogen); 20× Transfer buffer (Invitrogen); 4-12% Bis-Tris Gels (Invitrogen); Filter paper (Whatman); Nitrocellulose (Amersham); ECL plus detection reagents (GE Healthcare); Radiographic film (Kodak); Biorad Protein determination reagent (Biorad); AKT pathway signalling antibodies (Cell Signalling)
LnCaP and PC3 cell lines were washed, detached and re-suspended in fresh medium. They were seeded in 90 mm^2 dishes and incubated overnight ([…]/5% CO2) to allow adherence. […]
The medium was removed and the cells placed on ice and washed in PBS. […] The resultant supernatant was assayed for protein content using the Bradford method (Biorad) and equal quantities of protein calculated and heated in sample reducing buffer to 95° C. for ten minutes. […]
The membranes were used to determine difference in total AKT, pSer473 AKT, pGSK3β and total GSK3β (all sourced from Cell Signalling). […] The membranes were washed three times in PBS and incubated with the respective secondary antibodies (Sigma Aldrich) for two hours and the proteins were detected using ECL plus detection reagents (GE Healthcare).

T1 sequence (P31749 whole entry): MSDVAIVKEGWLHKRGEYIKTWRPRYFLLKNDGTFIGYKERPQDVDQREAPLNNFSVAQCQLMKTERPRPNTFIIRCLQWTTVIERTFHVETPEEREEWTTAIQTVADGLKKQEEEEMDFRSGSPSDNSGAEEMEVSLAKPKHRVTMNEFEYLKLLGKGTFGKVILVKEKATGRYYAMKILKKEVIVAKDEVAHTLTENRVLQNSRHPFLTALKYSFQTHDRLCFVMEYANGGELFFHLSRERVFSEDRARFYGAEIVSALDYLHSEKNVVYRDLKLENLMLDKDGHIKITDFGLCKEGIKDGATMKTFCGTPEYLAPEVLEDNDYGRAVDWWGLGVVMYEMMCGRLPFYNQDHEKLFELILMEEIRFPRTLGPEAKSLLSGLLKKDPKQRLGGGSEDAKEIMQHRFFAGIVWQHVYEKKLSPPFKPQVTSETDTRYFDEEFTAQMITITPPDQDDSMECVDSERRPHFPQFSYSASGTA

IC50 [1]: 100 to 1000 nM
IC50 [2]: 100 to 1000 nM
IC50 [3]: 1000 to 10000 nM
SMILES: CSc1nc2oc(-c3ccc(C4(N)CCC4)cc3)c(-c3ccccc3)c2c(=O)[nH]1 [Example 15, 6-(4-(1-Aminocyclobutyl)phenyl)-2-(methylthio)-5-phenylfuro[2,3-d]pyrimidin-4(3H)-one]
inhibition of AKT phosphorylation [4]: inhibition of AKT phosphorylation
